Source: a melting point compilation (Tetko et al.; mined from patent text by program, amines drawn as free bases though some values may be those of a salt)

Compound | melting point [°C]
CCCCCNC(=O)N1CCC(c2nc(C3=NOC(c4ccccc4)C3)cs2)CC1 (configuration not stated) | 132 to 134
CC(C)(C)c1cc(CC=Cc2ccccc2)c(O)c(C(C)(C)C)c1 | 89
O=C(CCCN1CCOCC1)c1ccc2c(c1)Cc1cc(C(=O)CCCN3CCOCC3)ccc1S2 | 90.5 to 91.5
CCOc1cc(C)cc2cc(C#N)c(=O)oc12 | 173
Cc1ccsc1C(Cc1ccccc1NCN1C(=O)CCC1=O)N(C)C=O (configuration not stated) | 160 to 164
Cc1cc(C(F)(F)C(F)(F)F)ccc1NC(=O)c1cccc(I)c1C(=O)NC(C)C | 195 to 196
Cc1ccc(S(=O)(=O)n2ccc3c(-c4c(-c5ccc(F)cc5)nc5ccc(N6CCN[C@H](C)C6)nn45)ccnc32)cc1 | 253 to 256
Cc1nc2c(OCc3ccccc3)cc(C(=O)N(C)C)cc2n1C | 159 to 160
COc1ccc(Nc2nc(NC3CCCCCC3)cc(N3CCC(O)CC3)n2)cc1Cl | 84 to 86
COc1nc(N)nc(-c2ccccc2)c1-c1ccc(=O)n(C)n1 | 218 to 220
OCc1cnc(Cl)c(Cl)c1 | 72 to 75
O=c1[nH]c(=O)n(CCCCN2CCC(OC(c3ccccc3)c3ccccc3)CC2)c2ccc([N+](=O)[O-])cc12 | 211 to 213
Cc1nc(-n2cc(CNc3ccccc3)nn2)sc1C(=O)NCc1ccccc1 | 159 to 162
CC1CCC(c2ccc(OCC(=O)O)c(Cl)c2Cl)=CC1=O (configuration not stated) | 183 to 185
Cc1ncc([N+](=O)[O-])cc1C(=O)NC(=O)C(C)(C)C | 138 to 139
COc1cc(OC)cc(N2CCN(C(=S)Nc3cc(C)c(C)cc3OC)CC2)c1 | 128 to 129
CCc1n[nH]c(CC)c1Oc1cc(Cl)cc(Cl)c1 | 114 to 115
COC(=O)CCC(=O)c1ccc(N2CCOCC2)cc1 | 120 to 121
Oc1ccc2c(c1)CCCC(c1ccccc1)=C2c1ccc(OCCCCCSCCCC(F)(F)C(F)(F)F)cc1 | 167 to 168
NC(=O)c1ccccc1N=C(NC(=O)c1ccccc1)NC(=O)c1ccccc1 | 276 to 278
O=C1c2cccc3cc4ccccc4c(c23)C(=O)N1CCCNCCCCNCCCN1C(=O)c2cccc3cc4ccccc4c(c23)C1=O | 183
CC(C)(CNc1ccnc2cc(Cl)ccc12)NCc1cccc(Cl)c1 | 125 to 126
O=CNc1ccnc(C(=O)Nc2ccc(Oc3ccccc3)cc2)c1O | 208
O=C1c2nccc([N+](=O)[O-])c2-c2nc3ccccc3c3ccnc1c23 | > 260

Compound | melting point [°C]
CC1CCCN1CCCOc1ccc2c(c1)CCC1CC(=O)NN=C21 (configuration not stated) | 193 to 195
O=C(NCC1Cc2cc(Cl)c3ccccc3c2O1)OCc1ccccc1 (configuration not stated) | 117 to 119
COC(=O)c1ccc(Cc2cc3cc(C(F)(F)F)ccc3[nH]2)cc1 | 127
CCOCc1nc2c(N)nc3cc(-c4ccccc4)ccc3c2n1CC(C)(C)NS(C)(=O)=O | 239 to 242
O=C(Nc1ccc2cc(CN3CCCCCC3)cnc2c1)c1ccc(-c2ccc(Cl)cc2)cc1 | 204
CSc1cccc(-n2ncc(-c3ccc(S(C)(=O)=O)cc3)c(-c3ccc(F)cc3)c2=O)c1 | 196
COc1ccc(-c2ccc3c(c2)C(=O)NC3=O)c2c1OCCO2 | 285 to 287
Clc1ccc(C2=CCCc3cc(Cl)c(Cl)cc32)cc1 | 106 to 108
Cc1cccc(Cl)c1NC(=O)CN1CCN(CCCC(c2ccc(F)cc2)c2ccc(F)cc2)C(CO)C1 (configuration not stated) | 150
CCOCc1cc2cccc(OC)c2oc1=O | 131 to 133
Oc1ccc(-c2nc(-c3ccc(Sc4ccccc4)cc3)nc(-c3ccc(O)cc3O)n2)c(O)c1 | > 250
CN1C(=O)C(c2ccc(Cl)cc2)S(=O)C1c1cccnc1 (configuration not stated) | 149 to 153
O=C(O)c1ccc(Cl)c2c1OCCO2 | 195
CN1C(=O)CC[C@]2(C)c3ccc(-c4ccc(F)cc4)cc3CC[C@@H]12 | 121 to 122
COc1ccc(C(=O)Nc2cc(C)cc(C)c2)cc1NC(=S)Nc1cccc(C)c1 | 188 to 189
Cc1cc(C)cc(N(CCCC(N)=O)Cc2ccc3nc(NCCCN4CCOCC4)n(Cc4cccc5cccnc45)c3c2)c1 | 154
CNC(=O)Nc1cc(OC)c(-c2ccc(C[C@H](NC(=O)c3c(Cl)cccc3Cl)C(=O)O)cc2)c(OC)c1 | 206 to 207
CC(=O)OCC1OC(n2cc(C)c(-n3cncn3)nc2=O)CC1N=[N+]=[N-] (configuration not stated) | 143 to 145
C=Cc1cc(OS(=O)(=O)c2ccc(C)cc2)c(OC)cc1C#N | 149 to 150
Fc1cc2c(c(-c3c(Cl)cccc3Cl)c1)OC(CN1CCCC1)C2 (configuration not stated) | 65 to 67
Nc1ccc(C(=O)N2CCCCc3sccc32)c(Cl)c1 | 176 to 179
CN(C)CCNC1=CC(=O)c2nc(-c3ccc(F)cc3)sc2C1=O | 246 to 247
COc1cc(C(=O)NS(=O)(=O)c2ccccc2C)ccc1Cc1c(Cl)n(C)c2ccc(CC3CCN(C)C3=O)cc12 (configuration not stated) | 129 to 133
